Consider 23 compounds from ChEMBL document CHEMBL2029243, “Potent and selective pyrazolo[1,5-a]pyrimidine based inhibitors of B-Raf(V600E) kinase with favorable physicochemical and pharmacokinetic properties” (Bioorg Med Chem Lett, 2012).

Molecules are shown by their SMILES. In brackets after ≈: the same amount, converted by molar mass. A value given as a limit tells only on which side of the number the result lay.

As usually defined, the IC50 is the midpoint of a concentration-inhibition curve. High values mean lower potency, low ones higher potency. By clearance is commonly meant the rate of elimination divided by the concentration. For orientation: solubility means the concentration that dissolves in the medium under given conditions. Higher therefore signals much dissolved substance. Usually AUC stands for concentration integrated over time. Low readings indicate low exposure, high ones high exposure. Broadly, the Papp is the rate of passage across a membrane or cell layer, normalised by area and donor concentration. As usually defined, the bioavailability is dose-corrected exposure relative to a reference, in per cent.

The target of data set [1] is T1, Serine/threonine-protein kinase B-raf (Homo sapiens, UniProt P15056, V600E).
T1 sequence (P15056 2-766 V600E limits assumed): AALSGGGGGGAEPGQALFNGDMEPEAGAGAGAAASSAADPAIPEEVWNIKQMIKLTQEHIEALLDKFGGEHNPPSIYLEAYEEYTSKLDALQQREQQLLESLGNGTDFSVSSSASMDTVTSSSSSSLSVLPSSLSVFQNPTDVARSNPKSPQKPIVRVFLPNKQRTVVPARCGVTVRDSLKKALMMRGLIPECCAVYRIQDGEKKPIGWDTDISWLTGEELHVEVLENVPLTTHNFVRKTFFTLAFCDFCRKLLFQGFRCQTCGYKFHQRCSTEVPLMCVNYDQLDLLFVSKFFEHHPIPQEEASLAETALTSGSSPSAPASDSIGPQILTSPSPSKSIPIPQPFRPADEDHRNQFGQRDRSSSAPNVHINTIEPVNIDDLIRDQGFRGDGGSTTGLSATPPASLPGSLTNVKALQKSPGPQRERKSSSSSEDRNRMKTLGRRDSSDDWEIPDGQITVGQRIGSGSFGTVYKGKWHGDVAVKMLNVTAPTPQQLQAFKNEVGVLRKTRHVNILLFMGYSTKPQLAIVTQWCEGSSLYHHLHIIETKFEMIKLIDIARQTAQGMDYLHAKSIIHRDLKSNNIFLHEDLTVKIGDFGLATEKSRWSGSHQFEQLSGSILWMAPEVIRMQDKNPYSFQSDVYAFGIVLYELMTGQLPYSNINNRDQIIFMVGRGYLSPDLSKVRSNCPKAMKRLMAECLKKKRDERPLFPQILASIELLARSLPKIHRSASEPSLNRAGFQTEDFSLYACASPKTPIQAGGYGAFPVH
For data set [2], the target named is T1, Serine/threonine-protein kinase B-raf. This is another data set of the same source.
Data set [3] can be described thus: Clearance in mouse at […], iv. To be noted: in vivo. Type of data set: ADME, organism-based. Further details: dose 2.5 mg/kg, route intravenous.
Data set [4] in a line: physchem. To be noted: buffer, pH 6.5.
Description: Aqueous solubility of the compound at pH 6.5
A short description of data set [5]: Volume of distribution in mouse at […], iv and 30 mg/kg, po. To be noted: in vivo. In kind it is ADME, organism-based.
Data set [6] can be described thus: Aqueous solubility of the compound at pH 1.2. In kind it is physicochemical. The following applies: buffer.
Data set [7] can be described thus: AUC in mouse at 30 mg/kg, po administered with 1% methylcellulose/0.5% Tween 80 in water. In kind it is ADME, organism-based. Further details: dose 30 mg/kg, route oral. The following applies: in vivo.
The nature of data set [8]: physchem. To be noted: buffer, pH 7.4.
Description: Aqueous solubility of the compound at pH 7.4
Data set [9] in a line: in vitro. The following applies: human, Caco-2.
Description: Permeability across human Caco2 cells
A short description of data set [10]: AUC in mouse at 30 mg/kg, po administered with 40/10/50 volume of PEG400/EtOH/H2O solution. Type of data set: ADME, organism-based. To be noted: plasma. Also on record: dose 30 mg/kg, route oral.
Data set [11] in a line: Oral bioavailability in mouse at 30 mg/kg. Type of data set: ADME, organism-based. To be noted: in vivo.

For the compound `CCCS(=O)(=O)Nc1ccc(F)c(C(=O)Nc2cnc3cc(-c4cnn(C)c4)nn3c2)c1F`, the figures for the IC50 in [1] and in [2] were 13 nM and 48 nM, respectively.
For `CCCS(=O)(=O)Nc1ccc(F)c(C(=O)Nc2cnc3cc(NC(C)C)nn3c2)c1F`, in that order: 190 nM and 395 nM.
For `CCCS(=O)(=O)Nc1ccc(F)c(C(=O)Nc2cnc3cc(CC)nn3c2)c1F`, in that order: 105 nM and 228 nM.
In the case of `CCCS(=O)(=O)Nc1ccc(F)c(C(=O)Nc2cnc3cc(C)nn3c2)c1F`, the IC50 stood at 131 nM in data set [1] and 248 nM in data set [2].
In the case of `CCCS(=O)(=O)Nc1ccc(F)c(C(=O)Nc2cnc3occc3c2)c1F`, the concentration for half-maximal inhibition (IC50) in data set [1] was over 10000 nM.
`CCCS(=O)(=O)Nc1ccc(F)c(C(=O)Nc2cnc3cc(OCC)nn3c2)c1F`: the values for the IC50 in data set [1] and in data set [2] were 83 nM and 205 nM, respectively.
For `CCCS(=O)(=O)Nc1ccc(F)c(C(=O)Nc2cnc3cc(NC)nn3c2)c1F`, in that order: 129 nM and 382 nM.
For `CCCS(=O)(=O)Nc1ccc(F)c(C(=O)Nc2cnc3cc(OC)nn3c2)c1F`, the clearance in data set [3] is 1 mL/min/kg. In addition, the solubility came out at 21 µg/mL (≈ 49.4 µM) in data set [4], 18 µg/mL (≈ 42.3 µM) in [6] and 32 µg/mL (≈ 75.2 µM) in data set [8]. The Vd in data set [5] came to 0.16 L/kg. In addition, the concentration for half-maximal inhibition (IC50) in [1] was found to be 43 nM; in data set [2], 68 nM. Further, the AUC in data set [7] turned out to be 844 µM·h; in data set [10], 733 µM·h. In data set [9], this compound displayed an apparent permeability coefficient (Papp) of 2 ×10⁻⁶ cm/s. This compound also registered a bioavailability in [11] of 98%.
For the compound `CCCS(=O)(=O)Nc1ccc(F)c(C(=O)Nc2cnc3cc[nH]c3c2)c1F`, the IC50 was 407 nM in data set [1] and 1510 nM in [2].
For `CCCS(=O)(=O)Nc1ccc(F)c(C(=O)Nc2cnc3ccccc3c2)c1F`, in that order: 464 nM and 1380 nM.
On the same counts, the results for `CCCS(=O)(=O)Nc1ccc(F)c(C(=O)Nc2cnc3cc(-c4cccc(F)c4)nn3c2)c1F` are 19 nM and 60 nM.
On the same counts, the results for `CCCS(=O)(=O)Nc1ccc(F)c(C(=O)Nc2cnc3cc(OC(C)C)nn3c2)c1F` are 149 nM and 449 nM.
For `CCCS(=O)(=O)Nc1ccc(F)c(C(=O)Nc2cnc3cc(C4CCCC4)nn3c2)c1F`, the 50% inhibitory concentration (IC50) worked out at 128 nM in data set [1] and 448 nM in data set [2].
Compound `CCCS(=O)(=O)Nc1ccc(F)c(C(=O)Nc2cnc3[nH]nc(OC)c3c2)c1F` had a clearance in data set [3] of 1.3 mL/min/kg. Also, the Vd in data set [5] came to 0.11 L/kg. Moreover, half-maximal inhibition in data set [1] (IC50) required 5 nM. This compound also yielded a solubility in [6] of 3 µg/mL (≈ 7.05 µM). Besides, the figures for the AUC in [7] and in data set [10] were 105 µM·h and 426 µM·h, respectively.
As for `CCCS(=O)(=O)Nc1ccc(F)c(C(=O)Nc2cnc3cc(-c4cccnc4)nn3c2)c1F`, the IC50 in data set [1] is 13 nM; in data set [2], 27 nM.
The compound `CCCS(=O)(=O)Nc1ccc(F)c(C(=O)Nc2cnc3nccn3c2)c1F` returned an IC50 in data set [1] of over 10000 nM.
`CCCS(=O)(=O)Nc1ccc(F)c(C(=O)Nc2cnc3cc(OCCOC)nn3c2)c1F`: the 50% inhibitory concentration (IC50) is 67 nM in data set [1] and 110 nM in data set [2].
Consider `CCCS(=O)(=O)Nc1ccc(F)c(C(=O)Nc2cnc3ccnn3c2)c1F`, for which the figures for the IC50 in data set [1] and in data set [2] were 247 nM and 488 nM, respectively.
On the same counts, the results for `CCCS(=O)(=O)Nc1ccc(F)c(C(=O)Nc2cnc3cc(C(F)(F)F)nn3c2)c1F` are 126 nM and 374 nM.
`CCCS(=O)(=O)Nc1ccc(F)c(C(=O)Nc2cnc3cc(N4CCCC4)nn3c2)c1F` returned an IC50 in data set [2] of 664 nM.
`CCCS(=O)(=O)Nc1ccc(F)c(C(=O)Nc2cnc3cc(N4CCOCC4)nn3c2)c1F`: the IC50 is 174 nM in [1] and 315 nM in data set [2].
With `CCCS(=O)(=O)Nc1ccc(F)c(C(=O)Nc2cnc3cc(C4CC4)nn3c2)c1F`, the results for the IC50 in data set [1] and in [2] were 124 nM and 299 nM, respectively.
As to `CCCS(=O)(=O)Nc1ccc(F)c(C(=O)Nc2cnc3cc(-c4ccc(F)cc4)nn3c2)c1F`, the IC50 in data set [1] came out at 11 nM; in data set [2], 54 nM.
